Assay results from patent US10428083B2, “Heterocyclylmethyl-thienouracile as antagonists of the adenosine-A2B-receptor” (BAYER PHARMA AKTIENGESELLSCHAFT, priority 2015, dated 2019).

target: human adenosine A2b receptor (Homo sapiens (Human), UniProt P29275); experiment: Cellular in vitro reporter gene test for A2b receptor activity (CHO-K1, CRE-luciferase, NECA stimulation); type: cell-based; conditions: recombinant CHO-K1 cell line, CRE-luciferase reporter, antagonism of EC50 concentration of NECA; in some cases means of several determinations, rounded to two significant figures; read-out: A2b receptor IC50
How it was run: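 CHO-K1 cells with CRE-driven luciferase; antagonists co-incubated with NECA at its EC50, determined in a pre-experiment on each test day. Luciferase read by luminescence 3 h after NECA addition.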

Chain of human adenosine A2b receptor (P29275 whole entry): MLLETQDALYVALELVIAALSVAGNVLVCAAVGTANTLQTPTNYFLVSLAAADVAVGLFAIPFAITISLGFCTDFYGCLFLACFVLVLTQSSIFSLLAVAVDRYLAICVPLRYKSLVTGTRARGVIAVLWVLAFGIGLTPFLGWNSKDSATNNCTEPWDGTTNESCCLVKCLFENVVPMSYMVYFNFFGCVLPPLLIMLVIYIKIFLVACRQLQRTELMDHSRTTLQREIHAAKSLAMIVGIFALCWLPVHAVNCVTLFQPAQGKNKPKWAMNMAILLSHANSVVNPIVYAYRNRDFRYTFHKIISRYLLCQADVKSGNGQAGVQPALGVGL

Row | IC50 [nM] | SMILES
1 | 7.7 | COCCn1c(=O)n(CC(F)(F)F)c(=O)c2c(C)c(CN3CCNC3=O)sc21 [Example 94, 1-(2-Methoxyethyl)-5-methyl-6-[(2-oxoimidazolidin-1-yl)methyl]-3-(2,2,2-trifluoroethyl)thieno[2,3-d]pyrimidine-2,4(1H,3H)-dione]
2 | 1.4 | C#CCCn1c(=O)c2c(C)c(CN3CCNC3=O)sc2n(CCOC)c1=O [Example 318, 3-(But-3-yn-1-yl)-1-(2-methoxyethyl)-5-methyl-6-[(2-oxoimidazolidin-1-yl)methyl]thieno[2,3-d]pyrimidine-2,4(1H,3H)-dione]
3 | 17 | CCn1c(=O)c2c(C)c(CN3CCNC3=O)sc2n(Cc2nonc2C)c1=O [Example 82, 3-Ethyl-5-methyl-1-[(4-methyl-1,2,5-oxadiazol-3-yl)methyl]-6-[(2-oxoimidazolidin-1-yl)methyl]thieno[2,3-d]pyrimidine-2,4(1H,3H)-dione]
4 | 19 | COCCCn1c(=O)c2c(C)c(CN3CCNC3=O)sc2n(CCOC)c1=O [Example 328, 1-(2-Methoxyethyl)-3-(3-methoxypropyl)-5-methyl-6-[(2-oxoimidazolidin-1-yl)methyl]thieno[2,3-d]pyrimidine-2,4(1H,3H)-dione]
5 | 29 | COCCn1c(=O)n(CC(C)C)c(=O)c2c(C)c(CN3CCN(C=O)C3=S)sc21 [Example 46, 3-{[3-Isobutyl-1-(2-methoxyethyl)-5-methyl-2,4-dioxo-1,2,3,4-tetrahydrothieno[2,3-d]pyrimidin-6-yl]methyl}-2-thioxoimidazolidine-1-carbaldehyde]
6 | 39 | CCn1c(=O)c2c(C)c(C(C)N3CCNC3=O)sc2n(CCC(F)(F)F)c1=O (single isomer, unassigned) [Example 503, 3-Ethyl-5-methyl-6-[1-(2-oxoimidazolidin-1-yl)ethyl]-1-(3,3,3-trifluoropropyl)thieno[2,3-d]pyrimidine-2,4(1H,3H)-dione]
7 | 46 | Cc1c(Cn2[nH]ccc2=O)sc2c1c(=O)n(C(C)C)c(=O)n2CC1CCCO1 (single isomer, unassigned) [Example 135, 3-Isopropyl-5-methyl-6-[(5-oxo-2,5-dihydro-1H-pyrazol-1-yl)methyl]-1-(tetrahydrofuran-2-ylmethyl)thieno[2,3-d]pyrimidine-2,4(1H,3H)-dione]
8 | 220 | COCCn1c(=O)n(C(C)COC)c(=O)c2c(C)c(CN3CCNC3=O)sc21 (single isomer, unassigned) [Example 330, 1-(2-Methoxyethyl)-3-(1-methoxypropan-2-yl)-5-methyl-6-[(2-oxoimidazolidin-1-yl)methyl]thieno[2,3-d]pyrimidine-2,4(1H,3H)-dione]
9 | 8.7 | COCCn1c(=O)n(CC(C)C)c(=O)c2c(C)c(CN3CCNC3=O)sc21 [Example 89, 3-Isobutyl-1-(2-methoxyethyl)-5-methyl-6-[(2-oxoimidazolidin-1-yl)methyl]thieno[2,3-d]pyrimidine-2,4(1H,3H)-dione]
10 | 30 | COC(=O)N=C1NCCN1Cc1sc2c(c1C)c(=O)n(CC(F)(F)F)c(=O)n2CC1CCO1 (single isomer, unassigned) [Example 467, Methyl [1-{[5-methyl-1-(oxetan-2-ylmethyl)-2,4-dioxo-3-(2,2,2-trifluoroethyl)-1,2,3,4-tetrahydrothieno[2,3-d]pyrimidin-6-yl]methyl}imidazolidin-2-ylidene]carbamate]
11 | 5 | CCn1c(=O)c2c(C)c(CN3CCNC3=S)sc2n(CCCCF)c1=O [Example 30, 3-Ethyl-1-(4-fluorobutyl)-5-methyl-6-[(2-thioxoimidazolidin-1-yl)methyl]thieno[2,3-d]pyrimidine-2,4(1H,3H)-dione]
12 | 13 | Cc1c(Cn2cc[nH]c2=O)sc2c1c(=O)n(CC(F)(F)F)c(=O)n2CC1CCCO1 (single isomer, unassigned) [Example 342, 5-Methyl-6-[(2-oxo-2,3-dihydro-1H-imidazol-1-yl)methyl]-1-(tetrahydrofuran-2-ylmethyl)-3-(2,2,2-trifluoroethyl)thieno[2,3-d]pyrimidine-2,4(1H,3H)-dione]
13 | 12 | CCn1c(=O)c2c(C)c(CN3CCCCC3=O)sc2n(CCC(F)(F)F)c1=O [Example 12, 3-Ethyl-5-methyl-6-[(2-oxopiperidin-1-yl)methyl]-1-(3,3,3-trifluoropropyl)thieno[2,3-d]pyrimidine-2,4(1H,3H)-dione]

Second part, the compound before the results:

Row | SMILES | IC50 [nM]
14 | COC(C)(C)Cn1c(=O)c2c(C)c(CN3CCNC(=O)C3=O)sc2n(CCCF)c1=O [Example 280, 6-[(2,3-Dioxopiperazin-1-yl)methyl]-1-(3-fluoropropyl)-3-(2-methoxy-2-methylpropyl)-5-methylthieno[2,3-d]pyrimidine-2,4(1H,3H)-dione] | 82
15 | Cc1c(CN2CCNC2=S)sc2c1c(=O)n(CC(C)C)c(=O)n2CCC(F)(F)F [Example 38, 3-Isobutyl-5-methyl-6-[(2-thioxoimidazolidin-1-yl)methyl]-1-(3,3,3-trifluoropropyl)thieno[2,3-d]pyrimidine-2,4(1H,3H)-dione] | 1.9
16 | Cc1c(CN2CCNC2=O)sc2c1c(=O)n(CC(C)C)c(=O)n2CC1CCO1 (single isomer, unassigned) [Example 195, 3-Isobutyl-5-methyl-1-(oxetan-2-ylmethyl)-6-[(2-oxoimidazolidin-1-yl)methyl]thieno[2,3-d]pyrimidine-2,4(1H,3H)-dione] | 41
17 | CCn1c(=O)c2c(C)c(Cn3nc[nH]c3=O)sc2n(CC2CCCO2)c1=O (single isomer, unassigned) [Example 421, 3-Ethyl-5-methyl-6-[(5-oxo-4,5-dihydro-1H-1,2,4-triazol-1-yl)methyl]-1-(tetrahydrofuran-2-ylmethyl)thieno[2,3-d]pyrimidine-2,4(1H,3H)-dione] | 71
18 | Cc1c(CN2CCNC2=S)sc2c1c(=O)n(CC(F)F)c(=O)n2C [Example 166, 3-(2,2-Difluoroethyl)-1,5-dimethyl-6-[(2-thioxoimidazolidin-1-yl)methyl]thieno[2,3-d]pyrimidine-2,4(1H,3H)-dione] | 13
19 | CCn1c(=O)c2c(C)c(CN3CCNC3=NC(=O)OC)sc2n(CC2CCO2)c1=O (racemic) [Example 371, Methyl [1-{[3-ethyl-5-methyl-1-(oxetan-2-ylmethyl)-2,4-dioxo-1,2,3,4-tetrahydrothieno[2,3-d]pyrimidin-6-yl]methyl}imidazolidin-2-ylidene]carbamate] | 9.8
20 | COCCn1c(=O)n(C(C)COC)c(=O)c2c(C)c(CN3CCNC3=O)sc21 (racemic) [Example 329, 1-(2-Methoxyethyl)-3-(1-methoxypropan-2-yl)-5-methyl-6-[(2-oxoimidazolidin-1-yl)methyl]thieno[2,3-d]pyrimidine-2,4(1H,3H)-dione] | 900
21 | COCCn1c(=O)n(C(C)C)c(=O)c2c(C)c(Cn3[nH]ccc3=O)sc21 [Example 133, 3-Isopropyl-1-(2-methoxyethyl)-5-methyl-6-[(5-oxo-2,5-dihydro-1H-pyrazol-1-yl)methyl]thieno[2,3-d]pyrimidine-2,4(1H,3H)-dione] | 26
22 | COC(C)Cn1c(=O)c2c(C)c(CN3CCNC3=O)sc2n(CCC(F)(F)F)c1=O (single isomer, unassigned) [Example 414, 3-(2-Methoxypropyl)-5-methyl-6-[(2-oxoimidazolidin-1-yl)methyl]-1-(3,3,3-trifluoropropyl)thieno[2,3-d]pyrimidine-2,4(1H,3H)-dione] | 11
23 | CCn1c(=O)c2c(C)c(CN3CCNC3=O)sc2n(CC(F)F)c1=O [Example 177, 1-(2,2-Difluoroethyl)-3-ethyl-5-methyl-6-[(2-oxoimidazolidin-1-yl)methyl]thieno[2,3-d]pyrimidine-2,4(1H,3H)-dione] | 15
24 | CCn1c(=O)c2c(C)c(Cn3nc[nH]c3=O)sc2n(CCCF)c1=O [Example 353, 3-Ethyl-1-(3-fluoropropyl)-5-methyl-6-[(5-oxo-4,5-dihydro-1H-1,2,4-triazol-1-yl)methyl]thieno[2,3-d]pyrimidine-2,4(1H,3H)-dione] | 31
25 | CCn1c(=O)c2c(C)c(CN3C(=O)OCC3(C)C)sc2n(CCC(F)(F)F)c1=O [Example 24, 6-[(4,4-Dimethyl-2-oxo-1,3-oxazolidin-3-yl)methyl]-3-ethyl-5-methyl-1-(3,3,3-trifluoropropyl)thieno[2,3-d]pyrimidine-2,4(1H,3H)-dione] | 8.8
26 | COCCn1c(=O)c2c(C)c(CN3CCNC(=O)C3=O)sc2n(CC2CCO2)c1=O (single isomer, unassigned) [Example 402, 6-[(2,3-Dioxopiperazin-1-yl)methyl]-3-(2-methoxyethyl)-5-methyl-1-(oxetan-2-ylmethyl)thieno[2,3-d]pyrimidine-2,4(1H,3H)-dione] | 100
27 | CCn1c(=O)c2c(C)c(CN3CCNC3=NC(=O)OC)sc2n(CC2CCO2)c1=O (single isomer, unassigned) [Example 373, Methyl [1-{[3-ethyl-5-methyl-1-(oxetan-2-ylmethyl)-2,4-dioxo-1,2,3,4-tetrahydrothieno[2,3-d]pyrimidin-6-yl]methyl}imidazolidin-2-ylidene]carbamate] | 5.9
28 | CCn1c(=O)c2c(C)c(CN3CCNC3=O)sc2n(CC2CCCO2)c1=O (racemic) [Example 68, 3-Ethyl-5-methyl-6-[(2-oxoimidazolidin-1-yl)methyl]-1-(tetrahydrofuran-2-ylmethyl)thieno[2,3-d]pyrimidine-2,4(1H,3H)-dione (racemate)] | 8.9
29 | CCn1c(=O)c2c(C)c(CN3CCNC3=O)sc2n(CCS(C)(=O)=O)c1=O [Example 310, 3-Ethyl-5-methyl-1-[2-(methylsulphonyl)ethyl]-6-[(2-oxoimidazolidin-1-yl)methyl]thieno[2,3-d]pyrimidine-2,4(1H,3H)-dione] | 370
30 | CCn1c(=O)c2c(C)c(CN3C(=O)CCC3C)sc2n(CCC(F)(F)F)c1=O (racemic) [Example 10, 3-Ethyl-5-methyl-6-[(2-methyl-5-oxopyrrolidin-1-yl)methyl]-1-(3,3,3-trifluoropropyl)thieno[2,3-d]pyrimidine-2,4(1H,3H)-dione (racemate)] | 7
